Results published in patent US5411983A, “Certain hyrdoxy-phosphinyl-oxy-phenylmethyl-imidazolium hydroxide inner salts as PAF antagonists” (American Cyanamid Company, priority 1993, dated 1995).
Where a name gives a salt, the structure may show the parent alone.

Tests used:
PAF receptor [1] = target: T1, PAF receptor (Oryctolagus cuniculus, UniProt G1TEI7); test: Inhibition of PAF induced platelet aggregation in washed rabbit platelets; assay type: cell-based; design: In some experiments, washed platelets were used instead of PRP; endogenous in cells; host or cells: washed rabbit platelets; details: challenge concentration of PAF 5E9M [sic]
Method: (§1) Platelet activating factor (PAF) compounds were evaluated as PAF receptor antagonists in vitro by measuring inhibition of PAF induced platelet aggregation. Platelet aggregation was measured by a modification of the method of A. Wissner, et. al., J. Med. Chem., 27, 1174, 1984.
(§2) Approximately 120-240 ml of blood were collected by cardiac puncture from unanesthetized male New Zealand White rabbits (Whaley's Summit View Farms, Belvedere, N.J.) with the use of 3.2% sodium citrate anticoagulant (1 part of citrate/10 parts of blood). All syringes and pipets were plastic. The blood was gently mixed and immediately centrifuged at 800 rpm for 10 minutes at room temperature to recover the platelet rich plasma (PRP). Platelet poor plasma (PPP) was prepared by centrifuging PRP at 2800 rpm for 10 minutes at room temperature.
(§3) Dilutions (1:3000) Of PRP in Isoton diluent were made and platelet counts were determined on a Coulter Thrombocounter which was standardized with platelet reference standards (Interscience Platelet Control, Portland, Oreg.). PRP platelet counts were adjusted to 500,000 platelets/μl by the addition of PPP.
(§4) L-PAF was obtained from Calbiochem. A stock solution of 1-2 E-3M was prepared in 10% ethanol in water and serial working dilutions were made using phosphate buffered saline (PBS). 1-2 E-3M stock solutions of test compounds were prepared in 100% methanol and serially diluted in PBS. All solutions were made up in plastic tubes, stored on ice and protected from heat and light. Solutions were prepared fresh or frozen at -20° C. and used within 48 hours.
(§5) Incubation mixtures consisted of 400 μl PRP, 50 μl of PBS diluent or test compound and 50 μl of PAF agonist. More specifically, 400 μl of PRP was stabilized in a cuvette for 1-2 minutes at 37° C. in the aggregometer to achieve a stable baseline, then 50 μl of PBS or test compound, was added and incubated for 5 minutes before addition of the challenge concentration of PAF ([…], as determined from the dose response curve for PAF for that experiment). Aggregation was monitored for 5 minutes. Samples containing test compound or diluent were run simultaneously for comparison. Test compounds were initially evaluated at a screening concentration of 1E-5M. Those producing ≥ 50% inhibition of the magnitude of aggregation were then reevaluated in a dose response fashion (final concentrations 1E-7M to 5E-5M) and IC50 values were determined. Ki values were also calculated in some cases from [formula] where Ki =inhibitory constant
(§6) IC50 =molar concentration of test compound which gives 50% inhibition
(§7) [PAF]=molar concentration of PAF used as challenges
(§8) EC50 =molar concentration of PAF which gives 50% of maximal aggregation.
(§9) The recording equipment consisted of single or dual channel Chronolog aggregometers connected to dual channel 10 MV full scale deflection Omniscribe chart recorders (Houston Instruments). […] The bead suspension was used to set the 0% light transmission mark and clear water was used to set the 100% light transmission mark. These limits defined a full scale deflection. The aggregation traces were analyzed by a digitizing method (C. Kohler and B. Zoltan, J. Pharm. Methods, 12, 113, 1984) with x, y coordinate data stored in a computer file. A suitable program computed parameters of interest such as the magnitude of aggregation.
In some experiments, washed platelets were used instead of PRP. Washed platelet suspensions were prepared as follows. PRP was centrifuged at 2800 rpm for 10 minutes to obtain PPP and a platelet pellet. The pellet was gently suspended and washed in calcium free, albumin free Tyrode's buffer, pH 6.3. The suspension was recentrifuged and the washed pellet was resuspended in normal Tyrodes', buffer (with calcium, but albumin free), pH 7.4. Platelet counts were adjusted to 500,00 platelets/μl.

PAF receptor [2] = target: T1, PAF receptor; test: Inhibition of PAF induced platelet aggregation in rabbit platelet rich plasma (PRP); assay type: cell-based, rabbit (male New Zealand White); design: immediately centrifuged at 800 rpm for 10 minutes at room temperature to recover the platelet rich plasma (PRP); endogenous in cells; host or cells: rabbit platelets in platelet rich plasma (male New Zealand White rabbits); details: rabbit platelet rich plasma
Method: as §1, §2, §3, §4, §5, §6, §7, §8, §9

[3] = system: PAF induced vascular permeability change in guinea pig skin
From the text: Platelet Activating Factor (PAF) given intradermally, increases capillary permeability, and plasma proteins (e.g albumin) leak from the vascular space into the interstitial fluids of the skin. If the albumin has been previously stained with Evans' blue dye, the lesion area can be visualized as a blue spot in the .skin. A specific PAF antagonist inhibits the development of increased capillary permeability caused by PAF and reduces the leakage of proteins into the skin. Test compounds were evaluated for non-specific effects by monitoring their ability to inhibit or reduce a histamine induced increase in capillary permeability.
Test Solutions were prepared as follows: Evans' Blue Dye (Sigma E2129) was dissolved in saline to yield a 0.1% w/v solution. A 2 mg/ml stock chloroform solution of PAF (1-phosphotidyl, acetyl-O-alkyl; Sigma P9525) was diluted in saline to give final concentrations of 500 and 250 ng/ml. Saline dilutions were made fresh for each test. Histamine diphosphate solutions (Sigma H7375) were prepared by dissolving 10 mg in 100 ml of saline and diluting to 20 μg/ml with saline. Test compounds were dissolved in ethanol at 10 mg/ml and stored at -70° C. Injection mixtures were made by placing 10 μl of test compound solution into 1.0 ml of either the PAF solutions or the histamine solution.
The animals used were Hartley strain guinea pigs weighing 250-350 g, maintained with food and water ad libitum. The animals were shaved on their back and hind feet one day before use.
Each guinea pig was given an intravenous injection of 2 ml of Evans' blue dye solution into a foot vein. Immediately after, a series of six intradermal injections of 0.1 ml each were given, three on each side of the animal. They were: PAF 50 ng (0.1 ml of a 500 ng/ml solution); PAF 25 ng; and histamine diphosphate 2 μg. The left side injections contain 10 μg of test compound while the right side contain an equivalent amount of the ethanol vehicle to serve as a control.
Thirty minutes later the animals were killed by cervical dislocation and the skin reflected from the back. The lesion areas were approximated as the product of the largest diameter and normal diameter both in mm.

[4] = system: PAF induced vascular permeability change in mouse skin; test: Inhibition of PAF induced vascular permeability change in mouse skin; assay type: in vivo, mouse (Hilltop ICR); details: ip, 0.5 h, test compound i.p., PAF i.d., read-out: Inhibition of Vascular Permeability Lesion (ED50 mg/kg)
Method: Inhibition of PAF Induced Vascular Permeability Change in Mouse Skin
The rationale for this test is similar to the coinjection test in guinea pigs; however, the test compound was given intraperitoneally rather than coinjected.
Test solutions were prepared as follows: An 80 μg portion of PAF was dissolved in 40 ml of saline to yield a concentration of 2000 ng/ml. A 10 mg portion of histamine diphosphate was dissolved in 100 ml of saline to yield a concentration 100 μg/ml. Test compounds were dissolved in saline and given intraperitoneally (20 mg/kg) 1/2 hour before intradermal challenge with PAF or histamine.
The animals used were Hilltop ICR mice, shaved on their flanks one day before use. The mice were randomly assigned to treated and control groups and were given test compound or saline 1/2 hour before challenge. Each mouse was injected via a tail vein with 0.25 ml of 0.05% Evans' blue dye immediately before the PAF or histamine intradermal injections were made (0.05 ml each), one per side.
Thirty minutes later the animals were killed and the lesions areas measured as described above. Lesion areas in treated animals were expressed as a percent of the control lesions and an ED50 (mg/kg) was calculated from an arcsine area vs. log dose transform.

[5] = PAF challenge 5E-8M, read-out: IC50 (M) PRP, inhibition of PAF-induced platelet aggregation
[6] = IC50 (M) PRP, inhibition of PAF-induced platelet aggregation, PAF challenge 1E-6M
[7] = IC50 (M) PRP, inhibition of PAF-induced platelet aggregation, PAF challenge 1E-7M
[8] = IC50 (M) PRP, inhibition of PAF-induced platelet aggregation, PAF challenge 5E-8M
[9] = PAF challenge 1E-6M, read-out: IC50 (M) PRP, inhibition of PAF-induced platelet aggregation
[10] = PAF challenge 1E-7M, read-out: IC50 (M) PRP, inhibition of PAF-induced platelet aggregation

T1 sequence (G1TEI7 1-342): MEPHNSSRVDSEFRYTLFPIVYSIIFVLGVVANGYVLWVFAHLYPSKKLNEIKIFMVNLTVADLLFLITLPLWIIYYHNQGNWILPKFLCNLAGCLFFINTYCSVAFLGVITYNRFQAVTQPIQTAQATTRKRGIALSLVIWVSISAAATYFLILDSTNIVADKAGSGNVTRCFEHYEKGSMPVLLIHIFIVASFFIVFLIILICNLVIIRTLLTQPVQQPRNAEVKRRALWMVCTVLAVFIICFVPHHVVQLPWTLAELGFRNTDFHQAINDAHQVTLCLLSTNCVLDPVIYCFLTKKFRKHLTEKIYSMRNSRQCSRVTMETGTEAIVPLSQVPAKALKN

| Structure (SMILES) | IC50 (PAF receptor [2]; [7]) | IC50 (PAF receptor [2]; [8]) | other results |
| --- | --- | --- | --- |
| CCCCCCCCCCCCCCCCOCC(COCc1cccc(Cn2cc[n+](C)c2)c1)OC (stereo not shown) [1-[[3-[[3-(Hexadecyloxy)-2-methoxypropoxy]methyl]phenyl]methyl]-3-methyl-1H-imidazolium, iodide] |  |  | IC50 (PAF receptor [1]): 1.5 µM; IC50 (PAF receptor [2]; [5]): 3.4e-06 M |
| CCCCCCCCCCCCCCCCCCNC(=O)OCC(COP(=O)([O-])Oc1cccc(C[n+]2ccsc2)c1)OC (stereo not shown) [3-[[3-[(1-Hydroxy-4-methoxy-7-oxo-2,6-dioxa-8-aza-1-phosphahexacosyl)oxy]phenyl]methyl]thiazolium, hydroxide, inner salt P-oxide] |  |  | Inhibition of Vascular Permeability Lesion (% of Control) [3]: 61.8 % of Control; ED50 [4]: 6.2 mg/kg |
| CCCCCCCCCCOCCOCCOCC(COP(=O)([O-])Oc1cccc(C[n+]2csc(C)c2)c1)OC (stereo not shown) [3-[[3-[[1-Hydroxy-4-methoxy-2,6,9,12-tetraoxa-1-phosphadocosyl]oxy]phenyl]-methyl]-5-methylthiazolium, hydroxide, inner salt, P-oxide] | 3.9e-06 M | 2.2e-06 M | IC50 (PAF receptor [2]; [6]): 9.4e-05 M |
| CCCCCCCCCCCCCCCCOCC(COC(=O)c1cccc(C[n+]2ccsc2)c1)OC (stereo not shown) [3-[[3-[[3-(Hexadecyloxy)-2-methoxypropoxy]carbonyl]phenyl]methyl]thiazolium, bromide] |  |  | IC50 (PAF receptor [2]; [9]): 4.9e-05 M; IC50 (PAF receptor [2]; [10]): 6.1e-06 M; IC50 (PAF receptor [2]; [5]): 3.6e-06 M |
| CCCCCCCCCCCCCCCCOCC(COCc1cccc(C[n+]2ccsc2)c1)OC (stereo not shown) [3-[[3-[[3-(Hexadecyloxy)-2-methoxypropoxy]methyl]phenyl]methyl]thiazolium bromide] |  |  | IC50 (PAF receptor [2]; [9]): 2.6e-05 M; IC50 (PAF receptor [2]; [10]): 3.7e-06 M; IC50 (PAF receptor [2]; [5]): 1.3e-06 M |
| CCCCCCCCCCCCCCCCCCOP(=O)([O-])Oc1cccc(C[n+]2ccsc2)c1 [3-[[3-[[Hydroxy(octadecyloxy)phosphinyl]oxy]phenyl]methyl]thiazolium, hydrozide, inner salt] |  | 2.2e-05 M |  |
| COC(CCCOCc1ccccc1)COP(=O)([O-])Oc1cccc(C[n+]2ccsc2)c1 (stereo not shown) [3-[[3-[[Hydroxy[[5-(phenylmethoxy)-2-methoxypentyl]oxy]phosphinyl]oxy]-phenyl]methyl]thiazolium, hydroxide, inner salt] |  | 0.0001 M |  |
| C=C(C)COC(COCCCCCCCCCCCCCCCC)COP(=O)([O-])Oc1cccc(C[n+]2ccsc2)c1 (stereo not shown) [3-[[3-[[[3-(Hexadecyloxy)-2-[(2-methyl-2-propenyl)oxy]propoxy]hydroxyphosphinyl]oxy]phenyl]methyl]thiazolium, hydroxide, inner salt] | 2.6e-06 M | 2.1e-06 M | IC50 (PAF receptor [2]; [6]): 3.9e-05 M |
| CCCCCCCCCCCCOc1cccc(OCC(COP(=O)([O-])Oc2cccc(C[n+]3csc(CCO)c3C)c2)OC)c1C (stereo not shown) [3-[[3-[[[3-[3-(Dodecyloxy)-2-methyl-phenoxy]-2-methoxypropoxy]hydroxyphosphinyl]oxy]phenyl]methyl)-5-(2-hydroxyetbyl)-4-methylthiazolium, hydroxide, inner salt] |  | 1.7e-05 M |  |
| CCCCCCCCCCCCOc1cccc(OCC(COP(=O)([O-])Oc2cccc(C[n+]3csc(C)c3)c2)OC)c1C (stereo not shown) [3-[[3-[[[3-[3-(Dodecyloxy]-2-methylphenoxy]-2-methoxypropoxy]hydroxyphosphinyl]oxy]phenyl]methyl]-5-methylthiazolium, hydroxide, inner salt] | 2e-06 M | 9.3e-07 M | IC50 (PAF receptor [2]; [6]): 3e-05 M |
| COC(COCc1ccc(OCc2ccc(Cl)cc2)cc1)COP(=O)([O-])Oc1cccc(C[n+]2ccsc2)c1 (stereo not shown) [3-[[3-[[[3-[[4-[(4-Chlorophenyl)methoxy]phenyl]methoxy]-2-methoxypropoxy]hydroxyphosphinyl]oxy]phenyl]methyl]thiazolium, hydroxide, inner salt] |  | 3e-05 M |  |
| COC(COCCCCCCCCOc1ccc(-c2ccccc2)cc1)COP(=O)([O-])Oc1cccc(C[n+]2ccsc2)c1 (stereo not shown) [3-[[3-[[[3-[[8-([1,1'-Biphenyl]-4-yloxy)octyl]-oxy]-2-methyoxypropoxy]hydroxyphosphinyl]-oxy]phenyl]methyl]thiazolium, hydroxide, inner salt] | 2.3e-06 M |  |  |
| CCCCCCCCCCCCCCCCCC(=O)NCC(COCCCCCCCCCCCCCCCC)COP(=O)([O-])Oc1cccc(C[n+]2ccsc2)c1 (stereo not shown) [3-[[3-[[[(2-[(Hexadecyloxy)methyl]-3-[(1-oxooctadecyl)amino]propoxy]hydroxy-phosphinyl]oxy]phenyl]methyl]thiazolium, hydroxide, inner salt] | 0.00013 M | 4.8e-05 M |  |
| C=C(C)COC(COCCCCCCCCCCCCCCCC)COP(=O)([O-])Oc1cccc(C[N+](C)(C)C)c1 (stereo not shown) [3-[[[3-(Hexadecyloxy)-2[(2-methyl-2-propeny)oxy]propoxy]hydroxyphosphinyl]-oxy]- --N, --N, --N-trimethylbenzenemethanaminium, hydioxide, inner salt] | 4.8e-05 M |  |  |
| CCCCCCCCCCCCOc1cccc(OCC(COP(=O)([O-])Oc2cccc(C[N+](C)(C)C)c2)OC)c1C (stereo not shown) [3-[[[3-[3-(Dodecyloxy)-2-methylphenoxy]-2-methoxypropoxy]hydroxyphosphinyl]oxy]-N,N,N-trimethylbenzenemethanaminum, hydroxide, inner salt] |  | 6e-06 M |  |
| CCCCCCCCCCCCCCc1cccc(OCC(COP(=O)([O-])Oc2cccc(C[S+](C)C)c2)OC)c1 (stereo not shown) [[[3-[[Hydroxy-[2-methoxy-3-(3-tetradecylphenoxy]propoxy]phosphinyl]oxy]-phenyl]methyl]dimethylsulfouium, hydroxide, inner salt] | 2.9e-05 M | 3.4e-06 M |  |
| CCCCCCCCCCCCCCCCOCC(COP(=O)(O)Oc1cccc(C[P+](c2ccccc2)(c2ccccc2)c2ccccc2)c1)OC (stereo not shown) [[[3-[[[3-(Hexadecyloxy)-2-methoxypropoxy]hydroxyphosphinyl]oxy]phenyl]-methyl]triphenylphosphonium, bromide] |  | 1.4e-05 M |  |
